Earlier results on three molecules are cited in patent US20240335458A1, “OPHTHALMIC COMPOSITION FOR THE TREATMENT OF VISUAL DISORDERS” (FOODVICA, S.A. DE C.V., priority 2021, published 2024).

For data set [1], the system named is protein aggregates obtained from surgically removed cataracts. The following applies: 2 mg/ml protein aggregates, 10 µM and 200 μM, 6-day treatment at room temperature.
The subject of data set [2] is sodium selenite-induced cataract.
The next data set has as its system cataracts. Conditions: 14 intravitreal injections of lanosterol nanoparticles (final dose 1.4 mg) plus 50 μL drops 3 times a day for 6 weeks, 7 dogs.
Another data set relates to rat lens opacities. The following applies: 15 mM lanosterol in liposomes.
The test system of data set [3] is age-related cataract human lens nuclei. Conditions: 25 mM lanosterol solution, 6 days.
Data set [4] deals with natural cataract lens of rabbits. The following applies: 25 mM lanosterol, 6 days.

For `C[C@H](CCCC(C)(C)O)[C@H]1CC[C@H]2[C@@H]3CC=C4C[C@@H](O)CC[C@]4(C)[C@H]3CC[C@]12C` [25-hydroxycholesterol], the “Macroscopic clearing of protein aggregate solutions” value in data set [1] is “dramatically cleared the originally dark solutions in a dose-dependent way”.

With `COc1cc(/C=C/C(=O)CC(=O)/C=C/c2ccc(O)c(OC)c2)ccc1O` [curcumin], the “Levels of lipid peroxidation, enzymatic and non-enzymatic antioxidants” value in data set [2] (curcumin 75 mg/kg body weight single dose, sodium selenite 15 μM/kg body weight) is listed as “significant reduction”. The “aA- and aB-crystallin and Hsp 70 expression” value in data set [2] (selenite-induced cataractogenesis) is “suppressed aA- and aB-crystallin expression induced by selenite and Hsp 70”.

Consider `CC(C)=CCC[C@@H](C)[C@H]1CC[C@@]2(C)C3=C(CC[C@]12C)[C@@]1(C)CC[C@H](O)C(C)(C)[C@@H]1CC3` [lanosterol], for which, in the data set with cataracts, the “Reduction of cataract stage” value is reported as “reduce up to two degrees the stage of cataracts”. The “Macroscopic clearing of protein aggregate solutions” value in data set [1] was “dramatically cleared the originally dark solutions in a dose-dependent way”. Further, in the data set with rat lens opacities, the “Reversal of lens opacities” value is reported as “failed to reverse the opacities or prevent progression”. In data set [3], the “Reversal of opacification of cataract nuclei” value was “did not reverse the opacification”. Further, the “Lens clarity before and after treatment” value in data set [4] was “solid trend towards reduction of cataract severity”.
